{
  "source": "patent US20240207265A1",
  "about": "“TREATMENT OF CNS DISEASES WITH sGC STIMULATORS” (Tisento Therapeutics Inc., priority 2021, published 2024)",
  "key": {"[1]": {"assay": "Non-human primate CSF pharmacokinetics (Study A)", "format": "in vivo, Cynomolgus monkeys", "settings": "female, cynomolgus monkey, NHP CSF (cisterna magna)/unbound plasma, sodium salt", "method": "PK in NHP was determined following oral dosing (PO). A group of 4 female Cynomolgus monkeys were used for studying each compound. Compound I-20 sodium salt was formulated as a 0.06 mg/mL solution in MilliQ water. Compound I-14 sodium salt was formulated as 0.2 mg/mL solution in MilliQ water. Formulations were shipped frozen on dry ice and then thawed and mixed thoroughly prior to dosing. PO doses of 1 mg/kg for Compound I-14 and 0.3 mg/kg for Compound I-20 were administered by oral gavage.\nPlasma and CSF samples were collected as follows: samples of CSF were collected at 3 and 24 hours post PO dosing. CSF samples (0.125 mL) were collected at the cisterna magna via direct needle puncture by direct dilution. Blood samples (0.8 mL) were collected from a peripheral vein at 0, 0.25, 0.5, 1, 2, 3, 6, 8, […], 24, 32 and 48 or 72 hours. These samples were kept on ice until processed for plasma. Blood samples were protein precipitated using acetonitrile. Plasma was directly transferred to individual tubes (0.125 mL) and K2EDTA was used as the anticoagulant. Plug caps were placed on the tubes and the tubes frozen at approximately −70° C. and stored until analysis. Plasma and CSF was collected and analyzed for the presence of compound.\nPlasma and CSF samples were analyzed using liquid chromatography (LC) with tandem mass spectrometric detection (MS/MS) using positive electrospray ionization. The standard curve range was from 0.1 to 1000 ng/mL.\nThe geometrical means for the values obtained for the 4 animals in each compound's study was obtained for concentrations in CSF and in Plasma, respectively.\nKp,uu is defined as the concentration ratio of unbound drug in CSF to unbound drug in plasma. Unbound drug in plasma (or free plasma concentration) is calculated by multiplying the total plasma concentration by the unbound fraction as determined by plasma protein binding. The CSF concentration is then divided by the free plasma concentration to determine the Kp,uu. (See e.g., Di et al., J. Med. Chem., 56, 2-12 (2013))"}, "[2]": {"system": "MK-801-induced memory deficit", "assay": "Novel Object Recognition (NOR) test, MK-801-induced memory disruption", "format": "in vivo, rat", "settings": "for Recognition Index vs Vehicle-MK-801 group: 1 mg/kg PO 60 min prior to training, MK-801 0.1 mg/kg; for side effects in NOR study: any dose tested, oral, Long Evans rats", "method": "In the present study, a memory saving model was used. MK-801 (Dizocilpine), an uncompetitive antagonist of the NMDA receptor was used to cause deficit of recognition memory. sGC stimulators were evaluated for their efficacy to prevent memory impairment induced by MK-801.\nAdult male Long-Evans rats (275-299 gram at arrival from Envigo, Indianapolis, IN) were used in this study. Rats were placed in the experimental rooms and assigned unique identification numbers (tail marks). Rats were housed 2 per cage in polycarbonate cages with filter tops and acclimated for at least 7 days prior to testing. Animal room was maintained in a 12/12 h light/dark cycle (lights on at 07.00 EST), 22±1° C. and relative humidity at approximately 50%. Food and water were provided ad libitum. All animals were examined, handled and weighed prior to the study to assure adequate health and to minimize the non-specific stress associated with testing. Each animal was randomly assigned across the treatment groups. The experiments were conducted during the animal's light cycle phase.\nMK-801 (0.1 mg/kg; Sigma-Aldrich) was dissolved in saline and injected IP, 15 min prior to NOR training. The dose volume was 1 ml/kg.\nGalantamine (1 mg/kg; Tocris) was dissolved in saline and injected IP, 15 minutes prior to training. The dose volume was 1 ml/kg.\nCompound I-20 (0.03, 0.3 and 1 mg/kg) was formulated in vehicle (0.5% (w/w) methyl cellulose and 0.5% (w/w) Tween 80 in ultrapure water) and orally dosed 60 min prior to NOR training at 2 ml/kg dose volume.\nCompound I-14 (0.01, 0.1 and 1 mg/kg) was formulated as its Na+ salt as a solution in MilliQ water and stored as frozen aliquots. The aliquots of compound solutions and compound vehicle were stored in −80° C. and freshly thawed on each testing day. The compound and vehicle were orally dosed 60 minutes prior to NOR training. The dose volume was 10 ml/kg.\nNOR test was conducted in an open-field arena (40×40 cm) placed in a sound-attenuated room under dimmed lighting. Each rat was tested separately, and care was taken to remove olfactory/taste cues by cleaning the arena and test objects with 70% alcohol between trials and rats. All training and testing trials were video-taped and scored by an observer blind to treatments.\nOn Days 1 and 2, rats were allowed to freely explore the arena (no objects inside) for a 5-minute habituation period. On Day 3 (training and testing day), rats were administered vehicle, saline and/or compound solution according to corresponding pretreatment, which is defined as time between injection and start of NOR training. Each animal was placed into the test arena in the presence of two identical objects. Each rat was placed in the arena facing the same direction at the same position, and the time spent actively exploring the objects during a 3-minute training period (T1) was recorded. The rat was returned to its home cage following training. NOR test (T2) was conducted 1 hour after T1. Each rat was placed back into the test arena in the presence of one familiar object and one novel object for 5 minutes, and the time spent exploring both objects was recorded. […]\nData of NOR test (T2) were expressed as Recognition Index, which is defined as the ratio of the time spent exploring the novel object over the total time spent exploring both objects (Novel/(Familiar+Novel)×100%) during the test session.\nFor Compound I-14, data were analyzed in two batches separately. […] Data were analyzed with t-test to evaluate the validity of the test. […]"}},
  "data": [
    {"smiles": "Cc1cc(F)c(Cc2nc(-c3ncc(F)c(O)n3)cn3ccnc23)cc1F", "note": "[Compound I-14, 5-fluoro-2-(8-(2,5-difluoro-4-methylbenzyl)imidazo[1,2-a]pyrazin-6-yl)pyrimidin-4-ol]", "values": [
      {"measurement": "Kp uu at 3 h", "setting": "[1]; PO 1 mg/kg", "result": "2 to 3"},
      {"measurement": "Kp uu at 24 h", "setting": "[1]; PO 1 mg/kg", "result": "> 3"},
      {"measurement": "Recognition Index vs Vehicle-MK-801 group", "setting": "[2]; 0-1 minute time range", "result": "reversed the deficit"},
      {"measurement": "Recognition Index vs Vehicle-MK-801 group", "setting": "[2]; 0-3 minute time range", "result": "trend (P<0.10) in reversing MK-801-induced memory deficit"},
      {"measurement": "Recognition Index vs Vehicle-MK-801 group", "setting": "[2]; 0-5 minute time range", "result": "significantly higher Recognition Index"},
      {"measurement": "side effects in NOR study", "setting": "[2]", "result": "None of the rats in this study showed obvious side effects at any dose"}
    ]},
    {"smiles": "Oc1nc(-c2cn3ccnc3c(Cc3cc(F)ccc3F)n2)ncc1F", "note": "[Compound I-20, 5-fluoro-2-(8-(2,5-difluorobenzyl)imidazo[1,2-a]pyrazin-6-yl)pyrimidin-4-ol]", "values": [
      {"measurement": "Kp uu at 3 h", "setting": "[1]; PO 0.3 mg/kg", "result": "≤ 1"},
      {"measurement": "Kp uu at 24 h", "setting": "[1]; PO 0.3 mg/kg", "result": "1 to 2"},
      {"measurement": "side effects in NOR study", "setting": "[2]", "result": "None of the rats in this study showed obvious side effects at any dose"}
    ]}
  ]
}
